Source: patent publication US11020380B2, “Therapeutic compounds” (CELGENE QUANTICEL RESEARCH, INC., priority 2017, dated 2021)
Where two headings read alike, the source gives them in different places.

Legend:
Format in all cases: binding
CBP [1] = molecular target: CBP (Homo sapiens, UniProt Q92793); test: In vitro CBP inhibition (AlphaScreen, biotinylated H4-tetraacetyl peptide)
Method: (§1) The CBP-inhibitory activity of the compounds described herein was determined by calculating the IC50. More specifically, CBP inhibitor activity was assayed as follows: CBP was cloned and expressed in E. coli as His-tag protein and purified by Nickel affinity and gel-filtration chromatography. […] CBP binding and inhibition is assessed by monitoring the interaction of biotinylated H4-tetraacetyl peptide (AnaSpec, H4K5/8/12/16(Ac), biotin-labeled) with the target using the AlphaScreen technology (Perkin Elmer). In a 384-well ProxiPlate CBP (50 nM final) was combined with peptide (20 nM final) in 50 mM HEPES (pH 7.3), 10 mM NaCl, 0.25 mM TCEP, 0.1% (w/v) BSA, and 0.005% (w/v) Brij-35 either in the presence of DMSO (final 0.4% DMSO) or compound dilution series in DMSO. After 20 min incubation at room temp, Alpha-streptavidin donor beads and Nickel Chelate acceptor beads were added to a final concentration of 5 μg/mL.
(§2) The ability of the compounds disclosed herein to inhibit CBP activity was quantified and the respective IC50 value determined.

BRD4 = BRD4 (Homo sapiens (Human), UniProt O60885); test: In vitro enzyme inhibition assay - BRD4 inhibition; conditions: BRD4 BD1
CBP [2] = test: In vitro CBP inhibition (AlphaScreen, biotinylated H4-tetraacetyl peptide); conditions: selectivity CBP vs BRD4
Method: as §1, §2

Chain of CBP (Homo sapiens, UniProt Q92793) (Q92793 2-2442 limits assumed): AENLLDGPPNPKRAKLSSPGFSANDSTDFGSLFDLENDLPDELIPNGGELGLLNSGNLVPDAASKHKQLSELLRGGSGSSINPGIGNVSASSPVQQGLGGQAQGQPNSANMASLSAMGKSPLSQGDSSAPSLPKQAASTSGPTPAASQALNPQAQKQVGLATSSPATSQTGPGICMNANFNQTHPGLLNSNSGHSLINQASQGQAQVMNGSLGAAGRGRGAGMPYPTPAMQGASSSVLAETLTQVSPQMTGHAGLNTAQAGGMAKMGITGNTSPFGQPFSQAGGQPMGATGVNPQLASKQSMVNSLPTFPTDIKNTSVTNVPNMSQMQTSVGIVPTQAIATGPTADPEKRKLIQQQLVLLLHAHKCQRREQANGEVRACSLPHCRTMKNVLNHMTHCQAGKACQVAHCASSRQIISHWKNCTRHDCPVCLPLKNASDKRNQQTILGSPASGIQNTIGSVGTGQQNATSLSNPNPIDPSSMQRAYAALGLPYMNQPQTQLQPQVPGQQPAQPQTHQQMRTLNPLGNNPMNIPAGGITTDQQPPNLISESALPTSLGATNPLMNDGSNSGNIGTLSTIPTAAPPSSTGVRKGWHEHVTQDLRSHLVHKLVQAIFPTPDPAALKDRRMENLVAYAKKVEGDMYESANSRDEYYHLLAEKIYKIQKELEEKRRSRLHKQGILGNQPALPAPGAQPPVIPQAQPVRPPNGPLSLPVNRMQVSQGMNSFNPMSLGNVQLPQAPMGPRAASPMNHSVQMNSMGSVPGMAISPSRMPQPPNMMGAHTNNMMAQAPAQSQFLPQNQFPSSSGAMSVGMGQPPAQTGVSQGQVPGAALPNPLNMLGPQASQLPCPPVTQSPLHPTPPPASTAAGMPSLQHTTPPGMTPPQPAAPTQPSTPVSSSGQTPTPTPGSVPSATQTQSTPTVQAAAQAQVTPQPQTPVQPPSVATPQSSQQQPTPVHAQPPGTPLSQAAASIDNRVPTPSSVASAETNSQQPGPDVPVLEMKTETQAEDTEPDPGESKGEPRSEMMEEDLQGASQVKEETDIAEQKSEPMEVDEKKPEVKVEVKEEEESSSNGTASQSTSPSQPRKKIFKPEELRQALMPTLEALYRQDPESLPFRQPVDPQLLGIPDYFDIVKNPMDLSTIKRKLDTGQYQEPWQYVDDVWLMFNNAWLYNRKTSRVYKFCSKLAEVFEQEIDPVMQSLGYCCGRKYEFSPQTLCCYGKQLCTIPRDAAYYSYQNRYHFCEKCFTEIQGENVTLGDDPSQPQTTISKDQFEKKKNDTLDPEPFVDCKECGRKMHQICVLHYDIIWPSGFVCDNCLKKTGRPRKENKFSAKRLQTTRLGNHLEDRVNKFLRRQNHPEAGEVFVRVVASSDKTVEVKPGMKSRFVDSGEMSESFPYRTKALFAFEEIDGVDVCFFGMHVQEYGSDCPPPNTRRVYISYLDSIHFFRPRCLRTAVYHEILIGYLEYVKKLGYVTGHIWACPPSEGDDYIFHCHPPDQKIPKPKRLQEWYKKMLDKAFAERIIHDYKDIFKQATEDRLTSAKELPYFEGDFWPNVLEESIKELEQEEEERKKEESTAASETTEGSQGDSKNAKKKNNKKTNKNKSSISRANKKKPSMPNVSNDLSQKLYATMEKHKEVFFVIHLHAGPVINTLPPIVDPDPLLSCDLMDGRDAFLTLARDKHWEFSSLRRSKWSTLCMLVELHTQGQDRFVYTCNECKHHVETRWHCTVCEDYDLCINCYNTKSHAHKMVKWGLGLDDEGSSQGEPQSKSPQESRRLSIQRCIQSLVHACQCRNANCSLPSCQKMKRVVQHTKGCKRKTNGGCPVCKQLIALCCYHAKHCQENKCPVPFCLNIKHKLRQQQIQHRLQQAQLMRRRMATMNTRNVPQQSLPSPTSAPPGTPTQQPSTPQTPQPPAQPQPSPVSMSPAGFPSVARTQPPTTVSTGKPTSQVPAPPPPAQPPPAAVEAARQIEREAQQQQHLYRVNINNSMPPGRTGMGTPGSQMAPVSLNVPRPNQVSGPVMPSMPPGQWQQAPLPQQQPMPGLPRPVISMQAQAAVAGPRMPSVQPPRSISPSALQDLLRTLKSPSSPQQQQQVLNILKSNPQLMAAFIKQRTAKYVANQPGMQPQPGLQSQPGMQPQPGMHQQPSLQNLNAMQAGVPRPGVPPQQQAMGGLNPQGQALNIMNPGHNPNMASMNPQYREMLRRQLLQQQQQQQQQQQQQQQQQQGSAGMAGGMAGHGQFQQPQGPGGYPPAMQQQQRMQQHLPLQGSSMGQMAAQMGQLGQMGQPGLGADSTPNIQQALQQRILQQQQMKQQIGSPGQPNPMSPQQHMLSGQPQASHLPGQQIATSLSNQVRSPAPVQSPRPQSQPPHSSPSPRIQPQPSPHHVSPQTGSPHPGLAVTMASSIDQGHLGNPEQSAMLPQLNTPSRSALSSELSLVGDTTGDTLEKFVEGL

1-methyl-5-(1-(1-phenylethyl)-1H- pyrazol-4-yl)-4-(pyrrolidin-1-yl) pyridin-2(1H)-one [Example 41]
IC50 (CBP [1]; read-out: CBP IC50): < 500 nM
IC50 (CBP [1]; read-out: CRREBBP IC50): < 500 nM
IC50 (BRD4): 500 to 5000 nM

Cn1cc(-c2cnn(Cc3ccccc3)c2)c(-n2cccc2)cc1=O [5-(1-benzyl-1H-pyrazol-4-yl)-1-methyl-4-(1H-pyrrol-1-yl)pyridin-2(1H)-one]
IC50 for CBP compared with IC50 for BRD4 (CBP [2]): lower IC50 for CBP than for BRD4

CCOc1cc(=O)n(C)cc1-c1cnn(C(C)c2ccccc2)c1 (stereo not shown) [Example 39, 4-ethoxy-1-methyl-5-(1-(1-phenylethyl)-1H-pyrazol-4-yl) pyridin-2(1H)-one]
IC50 (CBP [1]; read-out: CBP IC50): < 500 nM

CNC(=O)[C@@H]1CCN(c2cc(=O)n(C)cc2-c2cnn(Cc3ccccc3)c2)C1 [Example 88]
IC50 (CBP [1]; read-out: CBP IC50): < 500 nM

CN(C)CCCOc1ccc(-c2cc(=O)n(C)cc2-c2cnn(-c3cccc(Cl)c3C#N)c2)cn1 [Example 356, 2-chloro-6-(4-(6-(3-(dimethylamino)propoxy)-1′-methyl-6′-oxo-1′,6′-dihydro-[3,4′-bipyridin]-3′-yl)-1H-pyrazol-1-yl)benzonitrile]
IC50 (CBP [1]; read-out: CBP IC50): < 500 nM
